Common to all, as to assay type: biochemical
One experiment concerns calpain. Briefly: Inhibition of calpain. As to conditions: second-order rate constant; NI = no inhibition.
The target of another experiment is T1, papain (Carica papaya, UniProt P00784).
T1 sequence (P00784 134-345): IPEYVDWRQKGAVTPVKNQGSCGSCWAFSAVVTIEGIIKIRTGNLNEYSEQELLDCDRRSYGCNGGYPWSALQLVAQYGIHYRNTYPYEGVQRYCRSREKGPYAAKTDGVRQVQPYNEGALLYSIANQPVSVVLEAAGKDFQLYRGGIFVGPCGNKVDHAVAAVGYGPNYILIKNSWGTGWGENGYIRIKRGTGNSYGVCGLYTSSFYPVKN
Briefly: Inhibition of papain, incubation method. The note with it: second-order rate constant, NI = no inhibition; for kinact/KI: pH 7.5, read-out: kobs/[I] papain. Here is the method: (§1) The release of 7-amino-4-methylcoumarin was monitored (λex=360 nm, λem=465 nm) using a Tecan Spectra Fluor microplate reader. Pseudo first-order inactivation rate constants were obtained from plots of In vt/vo versus time.
The incubation method was also used for papain. The inhibition incubation buffer for papain was 50 mM Hepes buffer at pH 7.5, containing 2.5 mM DTT and 2.5 mM EDTA. The assay used the substrate Z-Phe-Arg-pNA (53.7 μM) in the same buffer. The approximate concentration of papain added to the incubation buffer was 0.29 mg/mL. The release of p-nitroanilide was monitored at 405 nm with a Molecular Devices Thermomax microplate reader.

For another experiment, the target named is cathepsin B (Homo sapiens, UniProt P07858). Briefly: Inhibition of cathepsin B, incubation method. The note with it: second-order rate constant, NI = no inhibition; for kinact/KI: pH 6, read-out: kobs/[I] cathepsin B.
From the text: as §1

Another experiment deals with T2, caspase-6 (Homo sapiens, UniProt P55212).
T2 construct: made in house; host or cells: E. coli
T2 sequence (P55212 24-179 limits assumed): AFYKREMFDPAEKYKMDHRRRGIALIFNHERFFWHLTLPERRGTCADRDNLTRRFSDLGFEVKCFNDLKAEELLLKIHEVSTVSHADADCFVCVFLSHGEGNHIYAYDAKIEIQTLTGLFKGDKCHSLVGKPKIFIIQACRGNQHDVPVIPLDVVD
T2 sequence (P55212 194-293 limits assumed): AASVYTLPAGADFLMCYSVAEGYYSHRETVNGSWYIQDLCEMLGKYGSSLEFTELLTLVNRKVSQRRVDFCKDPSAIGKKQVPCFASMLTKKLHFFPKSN
Briefly: Caspase-6 progress curve assay. As to conditions: Table V, substrate Z-DEVD-AFC. As to the method:
Caspase-3, -6, and -8. Caspase-3, -6 and -8 were expressed in E. coli and purified according to methods previously described by Stennicke and Salvesen. Assays using the fluorogenic substrate Z-DEVD-AFC (λex=400 nm, λem=505 nm) were carried out on a Molecular Devices fMax fluorescence microplate reader. Inhibition rates and equilibria were determined by the progress curve method. The standard 100 μL reaction was started by adding enzyme to a mixture of substrate (final concentration of Z-DEVD-AFC 100 μM) and various amounts of inhibitor in buffer (50 mM Hepes, 100 mM NaCl, 0.1% (w/v) CHAPS, sucrose 10% (w/v), and 10 mM DTT, at pH 7.4). The caspases were pre-activated for 10 min at 37° C. in the presence of 10 mM DTT.

The next experiment deals with T3, caspase-3 (Homo sapiens, UniProt P42574).
T3 construct: made in house; host or cells: E. coli
T3 sequence (P42574 29-175 limits assumed): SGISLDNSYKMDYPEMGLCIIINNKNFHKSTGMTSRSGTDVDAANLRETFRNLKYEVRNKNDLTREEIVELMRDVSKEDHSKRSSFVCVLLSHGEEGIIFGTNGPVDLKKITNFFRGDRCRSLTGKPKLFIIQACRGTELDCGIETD
T3 sequence (P42574 176-277 limits assumed): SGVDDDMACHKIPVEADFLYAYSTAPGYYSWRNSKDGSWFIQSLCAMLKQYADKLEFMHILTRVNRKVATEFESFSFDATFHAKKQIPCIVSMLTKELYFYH
Briefly: Caspase-3 progress curve assay. As to conditions: substrate Z-DEVD-AFC; NI = no inhibition. The procedure, abridged:
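E. coli-expressed caspases, pre-activated 10 min at 37° C with 10 mM DTT, were added to 100 μM Z-DEVD-AFC plus inhibitor in 50 mM Hepes, 100 mM NaCl, 0.1% CHAPS, 10% sucrose, 10 mM DTT, pH 7.4. AFC fluorescence (ex 400/em 505 nm) was followed; inhibition rates and equilibria came from progress curves.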

Turning to `CCOC(=O)[C@@H]1O[C@H]1C(=O)N(CCc1ccccc1)NC(=O)OCc1ccccc1` (relative stereo) [Cbz-AHph-trans-EP-COOEt, trans-3-(N^2-(N-Benzyloxycarbonyl)-N^1-phenylethylhydrazinocarbonyl)oxirane-2-carboxylic Acid Ethyl Ester], the “kobs/[I] calpain” value with calpain was 2.44 M⁻¹ s⁻¹. At papain, the “kobs/[I] papain” value worked out at 18.8 M⁻¹ s⁻¹. Also, the “kobs/[I] cathepsin B” value at cathepsin B was found to be 8.91 M⁻¹ s⁻¹.
As to `CCOC(=O)[C@@H]1O[C@H]1C(=O)N(CC(C)C)NC(=O)OCc1ccccc1` (relative stereo) [Cbz-ALeu-trans-EP-COOEt, trans-3-(N^2-(N-Benzyloxycarbonyl)-N^1-isobutylhydrazinocarbonyl)oxirane-2-carboxylic Acid Ethyl Ester], in the experiment on calpain, the “kobs/[I] calpain” value worked out at 1.75 M⁻¹ s⁻¹. On papain, the “kobs/[I] papain” value was 16.1 M⁻¹ s⁻¹. Moreover, the “kobs/[I] cathepsin B” value at cathepsin B was 4.43 M⁻¹ s⁻¹.
For `CCOC(=O)[C@@H]1O[C@@H]1C(=O)N(CC(C)C)NC(=O)C(CC(C)C)NC(=O)OCc1ccccc1` (relative stereo) [Cbz-Leu-ALeu-cis-EP-COOEt, cis-3-(N^2-(N-Benzyloxycarbonyleucyl)-N^1-isobutylhydrazinocarbonyl)oxirane-2-carboxylic Acid Ethyl Ester] the same measures were 1.88 M⁻¹ s⁻¹, 0.38 M⁻¹ s⁻¹ and 6.27 M⁻¹ s⁻¹.
For `CCOC(=O)[C@@H]1O[C@H]1C(=O)N(CC(C)C)NC(=O)[C@H](CC(C)C)NC(=O)OCc1ccccc1` (relative stereo) [Cbz-Leu-ALeu-trans-EP-COOEt, trans-3-(N^2-(N-Benzyloxycarbonyleucyl)-N^1-isobutylhydrazinocarbonyl)oxirane-2-carboxylic Acid Ethyl Ester] the same measures were 3.09 M⁻¹ s⁻¹, 6.37 M⁻¹ s⁻¹ and 23.32 M⁻¹ s⁻¹.
With `CC(C)C[C@H](NC(=O)OCc1ccccc1)C(=O)N[C@@H](CCC(=O)O)C(=O)N[C@H](C(=O)NN(CC(=O)O)C(=O)[C@H]1O[C@@H]1C(=O)N(Cc1ccccc1)Cc1ccccc1)[C@@H](C)O` [11-4, (2S,3S)-2-(Dibenzylcarbamoyl)-3-(N^2-(N-benzyloxycarbonylleucylglutamylthreonyl)-N^1-carboxymethylhydrazinocarbonyl)oxirane], the “k2 caspase-6” value at caspase-6 worked out at 13840 ± 270 M⁻¹ s⁻¹. For the same molecule, the “k2 caspase-3” value at caspase-3 turned out to be 2750 ± 205 M⁻¹ s⁻¹.
For `CC[C@H](C)[C@H](NC(=O)OCc1ccccc1)C(=O)N[C@@H](CCC(=O)O)C(=O)N[C@H](C(=O)NN(CC(=O)O)C(=O)[C@H]1O[C@@H]1C(=O)N(Cc1ccccc1)Cc1ccccc1)[C@@H](C)O` [11-11, (2S,3S)-2-(Dibenzylcarbamoyl)-3-(N^2-(N-benzyloxycarbonylisoleucylglutamylthreonyl)-N^1-carboxymethylhydrazinocarbonyl)oxirane] the same measures were 32000 ± 1680 M⁻¹ s⁻¹ and 3550 M⁻¹ s⁻¹.
Consider `CC(C)C[C@H](NC(=O)OCc1ccccc1)C(=O)N[C@@H](CCC(=O)O)C(=O)N[C@H](C(=O)NN(CC(=O)O)C(=O)[C@H]1O[C@@H]1C(=O)N(C)Cc1ccccc1)[C@@H](C)O` [11-16, (2S,3S)-2-(N-Methyl-N-benzylcarbamoyl)-3-(N^2-(N-benzyloxycarbonylleucylglutamylthreonyl)-N^1-carboxymethylhydrazinocarbonyl)oxirane], for which, on caspase-6, the “k2 caspase-6” value amounted to 9680 ± 875 M⁻¹ s⁻¹. Moreover, at caspase-3, the “k2 caspase-3” value came to 2640 ± 100 M⁻¹ s⁻¹.
For `CC(C)[C@H](NC(=O)CCc1ccccc1)C(=O)N[C@@H](C)C(=O)NN(CC(=O)O)C(=O)[C@H]1O[C@@H]1C(=O)N(C)Cc1ccccc1` [11-17, (2S,3S)-2-(N-Methyl-N-benzylcarbamoyl)-3-(N^2-(3-phenylpropanoylvalylalanyl)-N^1-carboxymethylhydrazinocarbonyl)oxirane] the same measures were 136 M⁻¹ s⁻¹ and 1950 ± 150 M⁻¹ s⁻¹.
For the molecule `CC[C@H](C)[C@H](NC(=O)OCc1ccccc1)C(=O)N[C@@H](CCC(=O)O)C(=O)N[C@H](C(=O)NN(CC(=O)O)C(=O)[C@H]1O[C@@H]1C(=O)N(C)Cc1ccccc1)[C@@H](C)O` [11-18, (2S,3S)-2-(N-Methyl-N-benzylcarbamoyl)-3-(N^2-(N-benzyloxycarbonylisoleucylglutamylthreonyl)-N^1-carboxymethylhydrazinocarbonyl)oxirane], the “k2 caspase-6” value on caspase-6 was 47730 ± 420 M⁻¹ s⁻¹. Further, the “k2 caspase-3” value at caspase-3 is 4780 M⁻¹ s⁻¹.
For `CCOC(=O)C1OC1C(=O)N(CCc1ccccc1)NC(C)=O` (stereo not drawn) [Ac-AHph-trans-EP-COOEt, trans-3-(N^2-(N-Acetyl)-N^1-phenylethylhydrazinocarbonyl)oxirane-2-carboxylic Acid Ethyl Ester], the “kobs/[I] calpain” value in the experiment on calpain was found to be 1.29 M⁻¹ s⁻¹. The “kobs/[I] papain” value on papain worked out at 26.88 M⁻¹ s⁻¹. Moreover, the “kobs/[I] cathepsin B” value at cathepsin B worked out at 40.62 M⁻¹ s⁻¹.
The like results for `CCOC(=O)[C@H]1O[C@@H]1C(=O)N(CCc1ccccc1)NC(=O)C(CC(C)C)NC(=O)OCc1ccccc1` (stereo partly drawn) [Cbz-Leu-AHph-(2S, 3S)-EP-COOEt, (2S,3S)-3-(N^2-(N-Benzyloxycarbonyleucyl)-N^1-phenylethylhydrazinocarbonyl)oxirane-2-carboxylic Acid Ethyl Ester] were, in that order, 2.28 M⁻¹ s⁻¹, 5.68 M⁻¹ s⁻¹ and 0.67 M⁻¹ s⁻¹.
For `CCOC(=O)[C@H]1O[C@@H]1C(=O)N(CC(C)C)NC(=O)C(CC(C)C)NC(=O)OCc1ccccc1` (stereo partly drawn) [Cbz-Leu-ALeu-(2S, 3S)-EP-COOEt, (2S,3S)-3-(N^2-(N-Benzyloxycarbonyleucyl)-N^1-isobutylhydrazinocarbonyl)oxirane-2-carboxylic Acid Ethyl Ester], the “kobs/[I] calpain” value in the experiment with calpain is 8.58 M⁻¹ s⁻¹. In addition, the “kobs/[I] papain” value at papain was found to be 10.53 M⁻¹ s⁻¹. In addition, at cathepsin B, the “kobs/[I] cathepsin B” value stood at 1.8 M⁻¹ s⁻¹.
On to `CCOC(=O)[C@H]1O[C@@H]1C(=O)N(CC(C)C)NC(=O)[C@H](CC(C)C)NC(=O)[C@H](CC(C)C)NC(=O)OCc1ccccc1` [Cbz-Leu-Leu-ALeu-(2S, 3S)-EP-COOEt, (2S,3S)-3-(N^2-(N-Benzyloxycarbonylleucylleucyl)-N^1-isobutylhydrazinocarbonyl)oxirane-2-carboxylic Acid Ethyl Ester], for which the “kobs/[I] calpain” value with calpain turned out to be 2.48 M⁻¹ s⁻¹. Moreover, the kinact/KI at papain turned out to be 10.5 M⁻¹ s⁻¹; on cathepsin B it was 0.98 M⁻¹ s⁻¹.
In the case of `CC(C)C[C@H](NC(=O)OCc1ccccc1)C(=O)N[C@@H](CC(C)C)C(=O)NN(CC(C)C)C(=O)[C@H]1O[C@@H]1C(=O)O` [Cbz-Leu-Leu-ALeu-(2S, 3S)-EP-COOH, (2S,3S)-3-(N^2-(N-Benzyloxycarbonylleucylleucyl)-N^1-isobutylhydrazinocarbonyl)oxirane-2-carboxylic Acid], in the experiment with calpain, the “kobs/[I] calpain” value was 0.82 M⁻¹ s⁻¹. Also, the kinact/KI on papain was 6.93 M⁻¹ s⁻¹; on cathepsin B it was 7.02 M⁻¹ s⁻¹.

These data come from patent US7056947B2, “Aza-peptide epoxides” (Georgia Tech Research Corp., priority 2002, dated 2006).
